# Source: ChEMBL document CHEMBL1148052, “Cylindrene, a novel sesquiterpenoid from Imperata cylindrica with inhibitory activity on contractions of vascular smooth muscle” (1994)
# Active and inactive are the calls of the source. No cut-off for these calls is given here.
# Columns and labels:
# Aorta [1] = assay: Inhibition of KCl-induced contraction in rabbit aorta at 100 nM; assay type: functional, tissue-based; conditions: Oryctolagus cuniculus
# Aorta [2] = assay: Inhibition of KCl-induced contraction in rabbit aorta at 300 uM; assay type: functional; conditions: Oryctolagus cuniculus
SMILES,Activity (Aorta [1]),inhibition at 300 µM (Aorta [2]) [%]
NC[C@H](O)c1ccc(O)c(O)c1,inactive,–
CC(=O)c1cc(C(C)C)c2c(c1)C(C)(O)CC2 (configuration not stated) [CYLINDRENE],–,40
